Results published in US20180153990A1, “PCA1 PROTEIN AND METHODS OF TREATING PNEUMOCYSTIS PNEUMONIA INFECTION” (priority 2016, published 2018).

Columns and labels:
Pneumocystis = experiment: Pcp-IRIS model: physiologic assessment (body weight, lung compliance, lung resistance); format: in vivo, SCID mice; conditions: treatment started when mice showed clinical signs of Pcp-IRIS
Excerpt: Severe combined immune deficient (SCID) mice on a C.B-17 background are maintained in a specific pathogen-free colony at University of Rochester Medical Center. For these studies, 6-8 week old female mice were infected with Pneumocystis by intratracheal inoculation with 1×10^5 Pneumocystis cysts and then also cohoused with other Pneumocystis-infected SCID mice to ensure infection. The mice were fed acidified water and sterile food. Immune reconstitution (IR) was initiated three weeks after infection by giving mice an intraperitoneal (i.p.) injection of 5×10^7 splenocytes from wild-type C.B-17 mice. All animals involved were treated ethically according to the guidelines from the Association for Assessment and Accreditation of Laboratory Care International (AAALAC International), and the protocols used were approved by the University Committee on Animal Resources.
Lung resistance and compliance were measured on living ventilated mice using a Harvard rodent ventilator (Harvard Apparatus, Southnatic, Mass.) and a whole body plethysmograph (BUXCO Electronics Inc., Wilmington, N.C.) as previously described (Wang et al., “Immune Modulation With Sulfasalazine Attenuates Immunopathogenesis but Enhances Macrophage-Mediated Fungal Clearance During Pneumocystis Pneumonia,” PLoS Pathog. 6:e1001058 (2010), which is hereby incorporated by reference in its entirety). […]

alveolar macrophages = experiment: Effect of antibody administration during Pcp on alveolar macrophage phenotype (iNOS M1 / YM-1 M2 staining); format: in vivo, SCID mice
Description: For this experiment the Pneumocystis-infected mice were treated as above except that they received only 2 doses of specific antibody, nonspecific antibody or sulfasalazine on days 1 and 3 and then sacrificed later in the day on day 3. BALF aliquots containing 5×10^4 cells in HBSS were cytospun onto glass slides, fixed with 3% paraformaldehyde in PBS for 15 minutes at room temperature; rinsed 3× in PBS; and permeabilized with 0.02% Triton X-100 in PBS for 15 minutes at room temperature. The slides were then rinsed 3× in PBS, blocked with species specific 5% normal serum (normal goat serum, MP Biomedical; normal donkey serum, EMD Millipore) in 0.05% Tween-20 in PBS (PBS-T) for 1 hr at room temperature and rinsed 3× in PBS-T. Alveolar macrophages were identified by staining with fluorescein labeled primary antibody to CD11c. Staining with antibody to iNOS was used to identify M1 macrophages while staining with antibody to YM-1 was considered a marker for M2 macrophages (Abcam and Stemcell).
To test the effect of immune modulation, by administration of sulfasalazine or passive immunization, on macrophage phenotype during response to Pneumocystis, these agents or control nonspecific antibody were administered and alveolar macrophages were harvested after 3 days.

O=C(O)c1cc(/N=N/c2ccc(S(=O)(=O)Nc3ccccn3)cc2)ccc1O [SSZ, sulfasalazine]
severity of Pcp (recovery of body weight, pulmonary function) (Pneumocystis): reduced severity of Pcp | M1 phenotype alveolar macrophages (alveolar macrophages; Treatment Day 3): 200 per 300 macrophages counted | M2 phenotype alveolar macrophages (alveolar macrophages; Treatment Day 3): 100 per 300 macrophages counted | proportion of M2 type macrophages in the alveolar space (alveolar macrophages; after 3 days): increase
